Test results as given in the NIST ThermoML archive (doi:10.1016/j.jct.2013.10.023).
Numbers after ± are expanded uncertainties.

Tests used:
[1] = 101 kPa, Liquid; for viscosity: Capillary tube (Ostwald / Ubbelohde) method; for mass density: Vibrating tube method
[2] = xn = mol fraction of the nth substance listed; conditions: 101 kPa, Liquid, x2 = 0; for viscosity: Capillary tube (Ostwald / Ubbelohde) method; for mass density: Vibrating tube method

| Structure (SMILES) | viscosity ([1]; 298.15 K) [mPa·s] | mass density ([1]; 298.15 K) [kg/m3] | viscosity ([1]; 308.15 K) [mPa·s] | mass density ([1]; 308.15 K) [kg/m3] | viscosity ([1]; 318.15 K) [mPa·s] | mass density ([1]; 318.15 K) [kg/m3] | viscosity ([1]; 328.15 K) [mPa·s] | mass density ([1]; 328.15 K) [kg/m3] | viscosity ([1]; 338.15 K) [mPa·s] | mass density ([1]; 338.15 K) [kg/m3] | viscosity ([1]; 348.15 K) [mPa·s] | mass density ([1]; 348.15 K) [kg/m3] | viscosity ([1]; 358.15 K) [mPa·s] | mass density ([1]; 358.15 K) [kg/m3] | also measured |
| --- | --- | --- | --- | --- | --- | --- | --- | --- | --- | --- | --- | --- | --- | --- | --- |
| CC(=O)[O-].CCn1cc[n+](C)c1 [1-ethyl-3-methylimidazolium acetate] | 138.4 ± 3.6 | 1099.04 ± 10 | 76.1 ± 1.6 | 1092.95 ± 10 | 45.9 ± 0.96 | 1086.88 ± 10 | 30.1 ± 0.63 | 1080.86 ± 10 | 20.8 ± 0.44 | 1074.86 ± 10 | 14.28 ± 0.3 | 1071.37 ± 10 | 11.53 ± 0.24 | 1063.03 ± 10 | – |
| CCOS(=O)(=O)[O-].CCn1cc[n+](C)c1 [1-ethyl-3-methylimidazolium ethyl sulfate] | 96.62 ± 2.2 | 1238.68 ± 10 | 60.41 ± 1.3 | 1231.92 ± 10 | 39.95 ± 0.84 | 1225.2 ± 10 | 28.91 ± 0.61 | 1218.51 ± 10 | 20.63 ± 0.43 | 1211.88 ± 10 | 15.66 ± 0.33 | 1208.19 ± 10 | 12.23 ± 0.26 | 1198.75 ± 10 | – |
| CCOS(=O)(=O)[O-].CCn1cc[n+](C)c1 [1-ethyl-3-methylimidazolium ethyl sulfate] + CC(=O)[O-].CCn1cc[n+](C)c1 | – | – | – | – | – | – | – | – | – | – | – | – | – | – | viscosity ([2]; 298.15 K): 96.62 ± 2.2 mPa·s; mass density ([2]; 298.15 K): 1238.68 ± 10 kg/m3; viscosity ([2]; 308.15 K): 60.41 ± 1.3 mPa·s; mass density ([2]; 308.15 K): 1231.92 ± 10 kg/m3; viscosity ([2]; 318.15 K): 39.95 ± 0.84 mPa·s; mass density ([2]; 318.15 K): 1225.2 ± 10 kg/m3; viscosity ([2]; 328.15 K): 28.91 ± 0.61 mPa·s; mass density ([2]; 328.15 K): 1218.51 ± 10 kg/m3; viscosity ([2]; 338.15 K): 20.63 ± 0.43 mPa·s; mass density ([2]; 338.15 K): 1211.88 ± 10 kg/m3; viscosity ([2]; 348.15 K): 15.66 ± 0.33 mPa·s; mass density ([2]; 348.15 K): 1208.19 ± 10 kg/m3; viscosity ([2]; 358.15 K): 12.23 ± 0.26 mPa·s; mass density ([2]; 358.15 K): 1198.75 ± 10 kg/m3 |
